# Measurements: the supplement of paper PMC10307832
# Columns and labels:
# Experiment in all cases: relative viability (nuclei count vs DMSO), 5 days (fraction); higher = more cells survive
# NCI-H1944 = system: NCI-H1944
# In short: (§1)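 A single step with final 0.05% Triton X-100, 1% formaldehyde and 1 ug/ml Hoechst fixed the cells and stained nuclei 5 days after treatment. Lung cancer cell lines in 1536-well plates had been treated by pin tool the day after seeding with one drug alone or a fixed anchor-drug dose plus five library-drug doses (not always all listed) in √10 steps, and nuclei were counted on 4× images. Relative viability is the ratio of nuclei in treated wells to nuclei in vehicle wells, taken as the median of duplicate plates.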
# HCC-366 = system: HCC-366
# In short: as §1
# COR-L23 = system: COR-L23
# In short: as §1
# NCI-H2023 = system: NCI-H2023
# In short: as §1
# NCI-H2405 = system: NCI-H2405
# In short: as §1
# NCI-H23 = system: NCI-H23
# In short: as §1
# NCI-H1993 = system: NCI-H1993
# In short: as §1
# NCI-H358 = system: NCI-H358
# In short: as §1
# LC-2-ad = system: LC-2-ad
# In short: as §1
# ABC-1 = system: ABC-1
# In short: as §1
# NCI-H838 = system: NCI-H838
# In short: as §1
# SK-LU-1 = system: SK-LU-1
# In short: as §1
# HOP-62 = system: HOP-62
# In short: as §1
# NCI-H1395 = system: NCI-H1395
# In short: as §1
# NCI-H2126 = system: NCI-H2126
# In short: as §1
# ChaGo-K-1 = system: ChaGo-K-1
# In short: as §1
# NCI-H1793 = system: NCI-H1793
# In short: as §1
# HCC-78 = system: HCC-78
# In short: as §1
# EMC-BAC-2 = system: EMC-BAC-2
# In short: as §1
# HARA = system: HARA
# In short: as §1
# HCC-15 = system: HCC-15
# In short: as §1
# NCI-H2228 = system: NCI-H2228
# In short: as §1
smiles,measurement,setting,value
COc1nc(C)cnc1NS(=O)(=O)c1cccnc1-c1ccc(-c2nnco2)cc1 [Zibotentan] + O=C(CCCCCCC(=O)Nc1ccccc1)NO [Vorinostat] (partner 1 µM),relative viability,NCI-H1944; first compound 0.08 µM,0.674
same,relative viability,NCI-H1944; first compound 0.253 µM,0.533
same,relative viability,NCI-H1944; first compound 0.8 µM,0.508
same,relative viability,NCI-H1944; first compound 2.53 µM,0.631
same,relative viability,HCC-366; first compound 0.08 µM,0.461
same,relative viability,HCC-366; first compound 0.253 µM,0.248
same,relative viability,HCC-366; first compound 0.8 µM,0.21
same,relative viability,HCC-366; first compound 2.53 µM,0.358
same,relative viability,COR-L23; first compound 0.08 µM,0.448
same,relative viability,COR-L23; first compound 0.253 µM,0.446
same,relative viability,COR-L23; first compound 0.8 µM,0.351
same,relative viability,COR-L23; first compound 2.53 µM,0.46
same,relative viability,NCI-H2023; first compound 0.08 µM,0.849
same,relative viability,NCI-H2023; first compound 0.8 µM,0.562
same,relative viability,NCI-H2023; first compound 2.53 µM,0.846
same,relative viability,NCI-H2405; first compound 0.08 µM,1.25
same,relative viability,NCI-H2405; first compound 0.253 µM,0.829
same,relative viability,NCI-H2405; first compound 0.8 µM,0.957
same,relative viability,NCI-H2405; first compound 2.53 µM,1.12
same,relative viability,NCI-H23; first compound 0.08 µM,0.642
same,relative viability,NCI-H23; first compound 0.253 µM,0.497
same,relative viability,NCI-H23; first compound 0.8 µM,0.452
same,relative viability,NCI-H23; first compound 2.53 µM,0.707
same,relative viability,NCI-H1993; first compound 0.08 µM,1.05
same,relative viability,NCI-H1993; first compound 0.253 µM,0.764
same,relative viability,NCI-H1993; first compound 0.8 µM,0.826
same,relative viability,NCI-H1993; first compound 2.53 µM,0.988
same,relative viability,NCI-H358; first compound 0.08 µM,0.563
same,relative viability,NCI-H358; first compound 0.253 µM,0.552
same,relative viability,NCI-H358; first compound 2.53 µM,0.751
same,relative viability,LC-2-ad; first compound 0.08 µM,0.751
same,relative viability,LC-2-ad; first compound 0.253 µM,0.723
same,relative viability,LC-2-ad; first compound 0.8 µM,0.739
same,relative viability,LC-2-ad; first compound 2.53 µM,0.731
same,relative viability,ABC-1; first compound 0.08 µM,1.01
same,relative viability,ABC-1; first compound 0.253 µM,0.77
same,relative viability,ABC-1; first compound 0.8 µM,1.05
same,relative viability,ABC-1; first compound 2.53 µM,1.53
same,relative viability,NCI-H838; first compound 0.08 µM,0.762
same,relative viability,NCI-H838; first compound 0.253 µM,0.716
same,relative viability,NCI-H838; first compound 0.8 µM,0.757
same,relative viability,NCI-H838; first compound 2.53 µM,0.771
same,relative viability,SK-LU-1; first compound 0.08 µM,0.697
same,relative viability,SK-LU-1; first compound 0.253 µM,0.726
same,relative viability,SK-LU-1; first compound 0.8 µM,0.819
same,relative viability,SK-LU-1; first compound 2.53 µM,0.83
same,relative viability,HOP-62; first compound 0.08 µM,0.676
same,relative viability,HOP-62; first compound 0.253 µM,0.57
same,relative viability,HOP-62; first compound 0.8 µM,0.735
same,relative viability,HOP-62; first compound 2.53 µM,0.623
same,relative viability,NCI-H1395; first compound 0.08 µM,0.809
same,relative viability,NCI-H1395; first compound 0.253 µM,0.502
same,relative viability,NCI-H1395; first compound 0.8 µM,0.698
same,relative viability,NCI-H1395; first compound 2.53 µM,0.951
same,relative viability,NCI-H2126; first compound 0.08 µM,0.844
same,relative viability,NCI-H2126; first compound 0.253 µM,0.765
same,relative viability,NCI-H2126; first compound 0.8 µM,0.651
same,relative viability,NCI-H2126; first compound 2.53 µM,0.831
same,relative viability,ChaGo-K-1; first compound 0.08 µM,0.802
same,relative viability,ChaGo-K-1; first compound 0.253 µM,0.764
same,relative viability,ChaGo-K-1; first compound 0.8 µM,0.713
same,relative viability,ChaGo-K-1; first compound 2.53 µM,0.815
same,relative viability,NCI-H1793; first compound 0.08 µM,0.673
same,relative viability,NCI-H1793; first compound 0.253 µM,0.673
same,relative viability,NCI-H1793; first compound 0.8 µM,0.925
same,relative viability,NCI-H1793; first compound 2.53 µM,0.973
same,relative viability,HCC-78; first compound 0.08 µM,0.482
same,relative viability,HCC-78; first compound 0.253 µM,0.347
same,relative viability,HCC-78; first compound 0.8 µM,0.382
same,relative viability,HCC-78; first compound 2.53 µM,0.48
same,relative viability,EMC-BAC-2; first compound 0.08 µM,0.907
same,relative viability,EMC-BAC-2; first compound 0.8 µM,0.546
same,relative viability,EMC-BAC-2; first compound 2.53 µM,0.514
same,relative viability,HARA; first compound 0.08 µM,0.638
same,relative viability,HARA; first compound 0.253 µM,0.633
same,relative viability,HARA; first compound 0.8 µM,0.569
same,relative viability,HARA; first compound 2.53 µM,0.568
same,relative viability,HCC-15; first compound 0.08 µM,0.859
same,relative viability,HCC-15; first compound 0.253 µM,0.863
same,relative viability,HCC-15; first compound 0.8 µM,0.879
same,relative viability,HCC-15; first compound 2.53 µM,0.84
same,relative viability,NCI-H2228; first compound 0.08 µM,0.805
same,relative viability,NCI-H2228; first compound 0.253 µM,0.719
same,relative viability,NCI-H2228; first compound 0.8 µM,0.613
same,relative viability,NCI-H2228; first compound 2.53 µM,0.92
